US8383582B2, “Inhibitor against forming biofilm comprising κ-casein macropeptide” (Industry Foundation of Chonnam National University, priority 2010, dated 2013)

Legend:
Type in all cases: cell-based, Listeria monocytogenes
[1] = tested on: L. monocytogenes 3990 and 18; experiment: Flow chamber biofilm assay (glass capillary tubes, continuous flow); details: 0.4 mg/ml CMP
Description: Under continuous flow conditions, biofilms were grown in glass capillary tubes by using a slight modification of the previously described method (Purevdorj et al., 2002). The flow chambers, with individual channel dimensions of 3 mm×3 mm×50 mm (Stovall Life Sciences, Inc., Greensboro, N.C., USA), were inoculated with 1 ml (˜10^9 CFU/ml) of the overnight cultures of L. monocytogenes grown in TSBYE. The inoculum was injected to fill the inside of the glass tubes by using a syringe. The tubing upstream of the glass tube was clamped, and the system allowed standing without flow for 30 min at room temperature. After inoculation, the capillary tubes were mounted on a standard microscope slide. The system was switched to continuous culture mode by delivering MWB to the home-made carboy with a flow rate of 0.1 ml/min at 30° C. […] The biofilms developed in the flow chambers were monitored by using transmitted light and 10× objective lenses with an Olympus CH2 microscope (Olympus, Tokyo, Japan).

L. monocytogenes [2] = experiment: Growth yields in MWB at 30° C.; details: data not shown
L. monocytogenes [3] = experiment: Biofilm formation on PVC microplates under static condition (crystal violet, A595); details: for inhibitory rate of biofilm formation (group): 24 h incubation
Excerpt: The quantification of biofilm production on plastic microtiter plates and glass tubes was based on a previously described method (Djordjevic et al., 2002). As abiotic surfaces for biofilm formation, 96-well polyvinyl chloride (PVC) microplates (BD Biosciences, San Jose, Calif., USA) and Pyrex glass tube (10 mm by 20 mm) were used. Overnight cultures of 12 strains of L. monocytogenes were twice washed with PBS and inoculated at 10^6 CFU/ml in modified Welshimer's broth (MWB) supplemented different concentrations of CMP (Davisco Foods International, Inc., MN, USA; 0.1, 0.2, and 0.4 mg/ml or 1.0, 2.0, and 4.0 mg/ml). After incubation at 30° C. without agitation for 24 and 48 h, the microplates were twice rinsed thoroughly with double-distilled water, and a 0.1% (w/v) solution of crystal violet (CV) was added to stain the attached cells. Following staining at room temperature for 30 min, CV was removed and the wells were rinsed with double-distilled water thrice. After the microplates were air dried, the dye was solubilized with 95% ethanol solution. The absorbance at 595 nm of the solubilized dye was subsequently determined by using an enzyme-linked immunosorbent assay (ELISA) plate reader (Molecular Devices, Sunnyvale, Calif., USA). An equal volume of 95% ethanol was added in the control wells.
All experiments were conducted at least in triplicate. The effects of each treatment were analyzed by analysis of variance (ANOVA) followed by Duncan's test with the SAS software package (version 9.1; SAS, Inc., Cary, N.C., USA). The level of significance was defined at p<0.05.

Substance: κ-casein macropeptide [CMP]
- microcolonies or aggregates seen ([1]; same incubation times as control (12-18 h)): very few microcolonies or aggregates
- biofilm biomass compared to control ([1]; strains 3990 and 18, 24 h, glass capillary tubes, continuous flow): decreased biomass
- effect on growth yields (L. monocytogenes [2]): did not significantly affect
- inhibitory effects on biofilm formation at low concentrations (L. monocytogenes [3]; 0.1, 0.2, or 0.4 mg/ml tested, effect at 0.4 mg/ml): profound inhibitory effects
- differences in biofilm inhibition among the tested concentrations (L. monocytogenes [3]; 1, 2, or 4 mg/ml of CMP): no significant differences
- decrease of L. monocytogenes biofilms compared to the control (L. monocytogenes [3]; PVC microplates, 1, 2, or 4 mg/ml of CMP): < 90%
- inhibitory rate of biofilm formation (group) (L. monocytogenes [3]; strain 17, PVC microplates): high inhibition (90%≦inhibition rate represent high inhibition)
- inhibitory rate of biofilm formation (group) (L. monocytogenes [3]; strain 18, PVC microplates): high inhibition (90%≦inhibition rate represent high inhibition)
- inhibitory rate of biofilm formation (group) (L. monocytogenes [3]; strain 70, PVC microplates): low inhibition (inhibition rate<87% represent low inhibition)
- inhibitory rate of biofilm formation (group) (L. monocytogenes [3]; strain 106, PVC microplates): medium inhibition (87%≦inhibition rate<90% represent medium inhibition)
- inhibitory rate of biofilm formation (group) (L. monocytogenes [3]; strain 303, PVC microplates): low inhibition (inhibition rate<87% represent low inhibition)
- inhibitory rate of biofilm formation (group) (L. monocytogenes [3]; strain 3982, PVC microplates): high inhibition (90%≦inhibition rate represent high inhibition)
- inhibitory rate of biofilm formation (group) (L. monocytogenes [3]; strain 3990, PVC microplates): high inhibition (90%≦inhibition rate represent high inhibition)
- inhibitory rate of biofilm formation (group) (L. monocytogenes [3]; strain Brie-1, PVC microplates): high inhibition (90%≦inhibition rate represent high inhibition)
- inhibitory rate of biofilm formation (group) (L. monocytogenes [3]; strain LCDC, PVC microplates): low inhibition (inhibition rate<87% represent low inhibition)
- inhibitory rate of biofilm formation (group) (L. monocytogenes [3]; strain Scott A, PVC microplates): low inhibition (inhibition rate<87% represent low inhibition)
- inhibitory rate of biofilm formation (group) (L. monocytogenes [3]; strain V7, PVC microplates): medium inhibition (87%≦inhibition rate<90% represent medium inhibition)
- inhibitory rate of biofilm formation (group) (L. monocytogenes [3]; strain V37, PVC microplates): medium inhibition (87%≦inhibition rate<90% represent medium inhibition)
